One data set deals with KAP organoids. Put plainly: cell viability in KAP organoids (CellTiter-Glo). Type of data set: cell-based, mouse. As to conditions: for induction of cell death in KAP organoids (in words): viability assay. As to the method: For in vitro treatment studies, organoids were mechanically dissociated and digested using TrypLE supplemented with 100 µg ml^−1 DNaseI and 10.5 µM Y-27632 dihydrochloride (Invitrogen) at 37 °C. A total of 1,000–2,000 single cells were plated per well in white 96-well plates (Greiner) in culture medium containing 10% GFR Matrigel or Cultrex BME. The treatment with doxycycline (5 µg ml^−1), pharmacological inhibitors or corresponding volumes of DMSO was started 24 h after plating. Doxycycline was obtained from Sigma-Aldrich. […] Cell viability was measured by means of CellTiter-Glo 3D or CellTiter-Glo 2.0 reagent (Promega) according to the manufacturers’ instructions and the Infinite M Plex reader (Tecan, i-control version 3.9.1 software). Results were normalized to vehicle (DMSO) or to shNC. For cell-doubling assays, the cell number was quantified at the corresponding time points using Guava EasyCyte flow cytometer (Luminex, CytoSoft v5.2 software).

The next data set concerns the target p38α (Homo sapiens, UniProt Q16539). Put plainly: p38α inhibition on isolated enzyme (ELISA, ATF2 substrate). Type of data set: biochemical. As to conditions: Fig. 2d; replicates. In general terms: ELISA stands for enzyme-linked immunosorbent assay.
The test system of another data set is subcutaneous KAP CRCs. Briefly: treatment of subcutaneous KAP tumors in wild-type mice. It counts as in vivo, mouse. The note with it: 6 d of treatment; single tumors; Fig. 5i.
Data set [1] can be described thus: cell viability after 2015, Navitoclax or 2015 + Navitoclax (Fig. 5f). It counts as cell-based. More on the design: concentration or dose not given beside the values. As to conditions: replicates.
[2] abbreviates: Mus musculus, 24 h, read-out: Cell viability (%), Fig. 1d, replicates.

Each structure is given as a SMILES string. Several values for one entry are separate records, joined by “and”; a condition that tells them apart may be missing. Identical values can stand only once. Like-named read-outs stand apart in the source and are kept apart here.

Sequence of p38α (Q16539 whole entry): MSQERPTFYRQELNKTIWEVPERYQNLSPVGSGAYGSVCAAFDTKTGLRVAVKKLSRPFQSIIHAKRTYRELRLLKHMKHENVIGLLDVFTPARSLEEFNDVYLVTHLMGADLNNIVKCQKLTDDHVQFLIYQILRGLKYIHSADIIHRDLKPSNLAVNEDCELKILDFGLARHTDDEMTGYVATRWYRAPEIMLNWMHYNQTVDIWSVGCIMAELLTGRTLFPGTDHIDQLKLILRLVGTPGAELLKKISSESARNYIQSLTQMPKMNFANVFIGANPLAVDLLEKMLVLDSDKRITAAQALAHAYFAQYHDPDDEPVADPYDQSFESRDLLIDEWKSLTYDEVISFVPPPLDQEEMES
Experimental for p38α: For evaluating p38α inhibition on isolated enzyme, an ELISA assay was performed[57]. […] Compounds were dissolved in DMSO (10 mM) and diluted (0.01–10 µM) in a kinase buffer containing 12 ng per 50 µl p38α protein (provided by J. Schultz, University of Tübingen), 50 mM Tris pH 7.5, 10 mM MgCl2, 10 mM β-glycerophosphate, 100 µg ml^−1 BSA, 1 mM dithiothreitol, 0.1 mM Na3VO4 and 100 µM ATP. Then, 50 µl of each sample was pipetted into the corresponding wells and incubated for 1 h at 37 °C. […] Finally, 50 µl of TMB substrate (BD Bioscience) was added to the wells. After 5 min, the reaction was stopped by adding 25 µl of 1 N HCl and the samples were measured photometrically at 450 nm with an ELISA reader (Molecular Devices, FilterMax F5) using SOFTmax PRO software (version 6.5.1).
Experimental for subcutaneous KAP CRCs: Subcutaneous injection, splenic seeding or cecum injection of organoids was performed in 8–10-week-old C57BL/6 N/Crl, Rag2^−/− (B6.Cg-Rag2^tm1.1Cgn/J), or CB17 Scid beige (CB17.Cg-Prkdc^scidLyst^bg-J/Crl) mice, obtained from Charles River. The organoids were dissociated into single cells, washed with PBS and injected in a 1:1 mixture of PBS and Matrigel. For murine organoids, 1 × 10^5 cells were injected into the left and right flanks or the spleen capsule and 2 × 10^6 cells were injected into the cecum wall. For human organoids, 4 × 10^5 cells were injected into the flanks of CB17 Scid beige mice. For splenic seeding and cecum injection, mice were anaesthetized using ketamine (100 mg kg^−1, intraperitoneally) and xylazin (10 mg/kg, intraperitoneally) in NaCl and a small laparotomy below the thorax was performed.
No mice were excluded during treatment studies.

As for `Cc1ccc(-n2nc(C(C)(C)C)cc2NC(=O)Nc2ccc(OCCN3CCOCC3)c3ccccc23)cc1` [BIRB-796, reference compound], the “induction of cell death in KAP organoids (in words)” value (from here on “induction of cell death”) with KAP organoids is “failed to inhibit p38α downstream signaling and induce cell death”.

Regarding `CC(C)(C)Cn1c(N)nc2ccc(-c3[nH]c(C(C)(C)C)nc3-c3ccc(F)cc3)nc21` [LY222820], the half-maximal inhibitory concentration (IC50) – broadly, the concentration that inhibits the measured activity by half – on p38α was 7.81 nM and 4.31 nM and 10.9 nM.

Consider `CC(C)(C)Cn1c(N)nc2ccc(-c3[nH]c(C(C)(C)C)nc3-c3ccc(F)cc3)nc21` [LY2228820, ralimetinib, reference compound], for which the viability at 5 µM with KAP organoids (Mus musculus, 24 h, read-out: Cell viability (%), Fig. 1d, 5 µM, replicates) is 93.3%. In the data set with KAP organoids (setting [2]), the viability at 10 µM was found to be 77.8%. Also, in the data set on KAP organoids, the “induction of cell death” value was “only a very weak induction of cell death”.

Regarding `CNC(=O)c1ccc(C)c(-n2c(C)cc(OCc3ccc(F)cc3F)c(Br)c2=O)c1` [PH797804], the viability at 1 µM was determined as 92.1% in the data set with KAP organoids (Mus musculus, 24 h, read-out: Cell viability (%), Fig. 1d, 1 µM, replicates) and 86.2% with KAP organoids (Mus musculus, read-out: Cell viability (% of DMSO), drug screen in KAP organoids, 1 µM concentration, n = 3, mean). Also, the viability at 10 µM in the data set on KAP organoids (setting [2]) came to 84.1%.

Consider `CNC(=O)c1ccc(C)c(-n2c(C)cc(OCc3ccc(F)cc3F)c(Br)c2=O)c1` [PH-797804, reference compound], for which the “induction of cell death” value with KAP organoids is given as “only a very weak induction of cell death”.

As to `CC1(C)CCC(c2ccc(Cl)cc2)=C(CN2CCN(c3ccc(C(=O)NS(=O)(=O)c4ccc(N[C@H](CCN5CCOCC5)CSc5ccccc5)c(S(=O)(=O)C(F)(F)F)c4)cc3)CC2)C1` [navitoclax, reference compound], in the data set with KAP organoids, the “induction of cell death” value is “no therapeutic response”. For the same molecule, in the data set with subcutaneous KAP CRCs, the Tumor volume is 87.5 mm³ and 126.0 mm³ and 144.0 mm³ and 112.5 mm³ and 100.0 mm³. Besides, in data set [1], the Cell viability is 100.49% and 78.37% and 85.69%.
